Measured values as given in patent publication US11584709B2, “Multitarget drug for treating diseases in mammals” (“PHARMENTERPRISES EURASIA” LIMITED LIABILITY COMPANY, priority 2017, dated 2023).

Columns and labels:
[1] = tested on: motility of the gastrointestinal tract; assay: Model of irritable bowel syndrome: motility of the gastrointestinal tract (activated carbon); format: in vivo, nonlinear male mice
Experimental: The effect on the motility of the gastrointestinal tract was studied on a model of irritable bowel syndrome in nonlinear male mice weighing 24-30 g. The animals were intragastrically injected with a solution of activated carbon (50 mg/ml, in a volume of 10 ml/kg) and the speed (in minutes) of the movement of activated coal through the intestines of animals. The compounds under study were intragastrically administered once 1 hour before the introduction of activated carbon. Drotaverine (6.7 mg/kg), Buscopan (3 mg/kg) and Trimedat (33 mg/kg) were used as reference drugs.

indomethacin colitis = assay: Model of colitis induced by indomethacin; format: in vivo, male Wistar rats; settings: day 4
Experimental: The study was performed on male Wistar rats, which were subcutaneously injected with an indomethacin solution in a dose of 9 mg/kg for two days running to induce colitis. The injection solution was prepared as follows: first, indomethacin was dissolved in 100% ethanol, then it was diluted in 5% NaHCO3 solution. On the 4th day after euthanasia, the stomach and intestine were removed from the animals in the CO2 chamber, then the caecum was excised, 10 cm from the ileum and large intestine was cut off, and 5 cm—from the caecum, to assess gross lesions (J Ethnopharmacol. 2004 February; 90(2-3): 195-204).

model of Crohn's disease = assay: Mouse model of Crohn's disease (TNBS); format: in vivo, male balb/c mice; settings: for The portion of dead animals: TNBS, 7 days, 10 animals
Experimental: The study was performed on male balb/c mice. Animals, which starved for 24 hours, were injected with 150 μl/mouse of TNBS solution in 50% ethanol into the rectal hole of the mouse to the depth of 4 cm using a 3.5 F catheter. Next, the mice were turned upside down and held for 60 seconds. 150 μl of the 50% ethanol solution was injected into the healthy control (intact animals). The study lasted 7 days. The development of pathology was assessed by the death of animals.

[2] = tested on: imiquimod-induced ear psoriasis; assay: Mouse model of imiquimod-induced ear psoriasis; format: in vivo, female balb/c mice; settings: 0.05%, M ± m, n = 10
Experimental: Psoriasis was simulated in female balb/c mice by applying Aldar cream (5% imiquimod) on the inner side of the right ear daily 1 time per day for 10 days (J Immunol. 2009 May 1; 182(9):5836-45). Vaseline was applied to intact animals: 20 mg on the right ear.
The assessment of the development of pathology was performed on 2nd, 4th, 6th, 8th and 10th day before the next application of Aldar cream by measuring the thickness of the left and right ears.

[3] = tested on: imiquimod-induced psoriasis on the back; assay: Mouse model of imiquimod-induced psoriasis on the back; format: in vivo
Experimental: Psoriasis was simulated in female balb/c mice by applying Aldar cream (5% imiquimod) on a previously shaved skin back area of 3×4 cm daily 1 time per day for 15 days (J Immunol. 2009 May 1; 182(9):5836-45). Intact animals were applied with vaseline: 120 mg per the shaved back area.
The assessment of the development of pathology was performed on the 10th, 12th, 13th and 15th day before the next application of Aldar cream according to the index: the thickness of the skin fold on the back. The thickness of the skin fold on the back was measured with a Digimatic MK-25 micrometer (Mitutoyo, Japan).

[4] = tested on: diarrhea induced by castor oil; assay: Mouse model of diarrhea induced by castor oil; format: in vivo, Balb/c mice; settings: 1 mg/kg; M ± m, n = 10; observation 4 hours
Experimental: Balb/c mice, which starved for 24 hours, were given castor oil intragastrically. Then the animals were encaged into individual cages with a bottom covered with white paper, and time before the onset of diarrhea was noted. The observation time is 4 hours (J Pharm Pharmacol. 2015 February; 67(2):244-54).

[5] = inducer alone (control group), 9 mg/kg subcutaneously two days running

Structure (SMILES): CCCC[N+]1(C)[C@@H]2C[C@@H](OC(=O)[C@H](CO)c3ccccc3)C[C@H]1[C@@H]1O[C@@H]12 (some centres unmarked) [Buscopan, reference compound]
- The evacuation speed of activated carbon ([1]; 3 mg/kg once intragastrically 1 hour before activated carbon): 73.2 ± 2.87 min

Structure (SMILES): C[C@]12C=CC(=O)C=C1CC[C@@H]1[C@@H]2[C@@H](O)C[C@@]2(C)[C@H]1CC[C@]2(O)C(=O)CO [Prednisolone]
- Macroscopic assessment of the lesion, Caecum (indomethacin colitis; 2 mg/kg, M ± m, n = 10): 0.3 ± 0.2& points
- Macroscopic assessment of the lesion, Ileum (indomethacin colitis; 2 mg/kg, M ± m, n = 10): 0.6 ± 0.6& points
- Macroscopic assessment of the lesion, Large intestine (indomethacin colitis; 2 mg/kg, M ± m, n = 10): 0.4 ± 0.2 points
- Macroscopic assessment of the lesion, Overall assessment (indomethacin colitis; 2 mg/kg, M ± m, n = 10): 1.3 ± 0.9& points
- The portion of dead animals (model of Crohn's disease; 5 mg/kg, 1 time per day): 80%
- The portion of dead animals (model of Crohn's disease; 10 mg/kg): 60%
- reduction of the mortality (model of Crohn's disease; summary of Table 4): 20-40%

Structure (SMILES): CCC(=O)O[C@]1(C(=O)CCl)[C@@H](C)C[C@H]2[C@@H]3CCC4=CC(=O)C=C[C@]4(C)[C@@]3(F)[C@@H](O)C[C@@]21C [Dermovate, clobetasol, reference compound]
- The gain in the thickness of the right (affected) ear relatively day 0 ([2]; day 2): 18.9%
- The gain in the thickness of the right (affected) ear relatively day 0 ([2]; day 4): 22.6%
- The gain in the thickness of the right (affected) ear relatively day 0 ([2]; day 6): 24.6%
- The gain in the thickness of the right (affected) ear relatively day 0 ([2]; day 8): 21.3%
- The gain in the thickness of the right (affected) ear relatively day 0 ([2]; day 10): 16.5%
- The gain of the thickness of the back skin to the thickness before the start of the study ([3]; 0.05%, day 10, M ± m, n = 10): −26.8%
- toxic effect ([3]; on the 12th day of the study, thinning the skin): total death of animals

Structure (SMILES): CN(C)C(=O)C(CCN1CCC(O)(c2ccc(Cl)cc2)CC1)(c1ccccc1)c1ccccc1 [Loperamide, reference compound]
- The time of onset of diarrhea [4]: 56.40 ± 5.14& min

Structure (SMILES): CCOc1ccc(/C=C2\NCCc3cc(OCC)c(OCC)cc32)cc1OCC [Drotaverine, reference compound]
- The time of onset of diarrhea [4]: 43.60 ± 2.61& min
- The evacuation speed of activated carbon ([1]; 6.7 mg/kg once intragastrically 1 hour before activated carbon): 105.85 ± 2.39 min

Structure (SMILES): CCC(COC(=O)c1cc(OC)c(OC)c(OC)c1)(c1ccccc1)N(C)C.O=C(O)/C=C\C(=O)O (centres unmarked) [Trimedat, reference compound]
- The evacuation speed of activated carbon ([1]; 33 mg/kg once intragastrically 1 hour before activated carbon): 83.65 ± 2.42 min

Structure (SMILES): COc1ccc2c(c1)c(CC(=O)O)c(C)n2C(=O)c1ccc(Cl)cc1 [Indomethacin]
- Macroscopic assessment of the lesion, Caecum (indomethacin colitis; [5]): 1.2 ± 0.4 points
- Macroscopic assessment of the lesion, Ileum (indomethacin colitis; [5]): 5.6 ± 1.2 points
- Macroscopic assessment of the lesion, Large intestine (indomethacin colitis; [5]): 1.2 ± 0.3 points
- Macroscopic assessment of the lesion, Overall assessment (indomethacin colitis; [5]): 8.0 ± 1.3 points
